Results from patent US10471118B2, “Retinylamine derivitives for treatment of ocular disorders” (CASE WESTERN RESERVE UNIVERSITY, priority 2014, dated 2019).
“Also recorded” adds a separate entry of the source.

Tests used:
Abca4^−/−Rdh8^−/− mice = experiment: Light-induced retinal degeneration in Abca4-/-Rdh8-/- mice (OCT, ERG, histology), Example 1; format: in vivo, mouse; details: 0.875 μmol per mouse oral gavage 16 h before 10,000 lux 1 h, OCT after 3 days in dark
Description: Abca4^−/−Rdh8^−/− double knockout mice were housed in the animal facility at the School of Medicine, Case Western Reserve University, where they were maintained under either complete darkness or a 12-h light (−10 1×) and 12-h dark cycle. All retinylamine tested were dissolved or suspended in 100 μl of vegetable oil with less than 10% (v/v) DMSO and were administered by oral gavage with a 22-gauge feeding needle. Experimental manipulations in the dark were done under dim red light transmitted through a Kodak No. 1 safelight filter (transmittance >560 nm). All animal procedures and experiments were approved by the Case Western Reserve University Animal Care Committees and conformed to recommendations of the American Veterinary Medical Association Panel on Euthanasia and the Association of Research for Vision and Ophthalmology.
After dark adaptation for 48 h, one or two Abca4^−/−Rdh8^−/− mice with pupils dilated by 1% tropicamide were exposed to fluorescent light (10,000 1×; 150-W spiral lamp, Commercial Electric) for 60 min in a white plastic bucket (Papersmith) with food and water and then kept in the dark. Histological and biochemical experiments were performed 3 days after exposure.
Ultra-high resolution spectral-domain OCT (SD-OCT; Bioptigen) and Heidelberg Retinal Angiograph II SLO (Heidelberg Engineering) were used for in vivo imaging of mouse retinas. Mice were anesthetized by intraperitoneal injection of a cocktail (20 μl g-1 body weight) containing ketamine (6 mg ml-1) and xylazine (0.44 mg ml-1) in 10 mM sodium phosphate, pH 7.2, and 100 mM NaCl. Pupils were dilated with 1% tropicamide. Four pictures acquired in the B-scan mode were used to construct each final averaged SD-OCT image.
All ERG procedures were performed by published methods. For single-flash recording, the duration of white-light flash stimuli (from 20 μs to 1 ms) was adjusted to provide a range of illumination intensities (from −3.7 to 1.6 log cd s m-2). Three to five recordings were made at sufficient intervals between flash stimuli (from 3 s to 1 min) to allow recovery from any photobleaching effects.
Mouse eyes were fixed for 24 h by rocking in a fixation solution (2 ml/eye) containing 4% paraformaldehyde and 1% glutaraldehyde in PBS. The tissue was processed through a series of ethanols, xylenes, and paraffins in a Tissue-Tek VIP automatic processor (Sakura, Torrance, Calif., USA), and 5-μm sections were cut using a Microm HM355 paraffin microtome (Thermo Fisher Scientific, Waltham, Mass., USA) and stained with hematoxylin and eosin (H&E) stain. Images of stained sections were captured by a Leica CTR6000 microscope attached to a CCD camera (Micropublisher 5.0 RTV, Qimaging Surray BC, Canada).
The effectiveness of the retinylamine derivatives on preventing light-induced retinal degeneration was tested in four-week old Abca4^−/−Rdh8^−/− mice according to the experimental scheme depicted in FIG. 1. After the mice were dark-adapted for 48 h, the drugs were gavaged at a dose 0.875 μmol/per mouse, which was selected based on the half protection dose for retinylamine after a dosing experiment, FIG. 2. Retinylamine was tested as a control at the same dose. […] Retinal integrity was assessed using optical coherence tomography (OCT). […] The mice without any treatment had photoreceptor cells completely destroyed after light illumination, and were used as a negative control. The retinal integrity was determined based on the thickness of outer nuclear layer (ONL) of the retinas measured from the OCT images. Reduced ONL thickness signifies the decreasing number of photoreceptors and retinal degeneration.

[1] = Biodistribution of N-retinylamides and retinylamine derivatives in liver and eye after oral gavage; format: in vivo, mouse; details: for original drug detected in the eye: 2 h and 16 h; for metabolism in the eye: conclusion from biodistribution at 2 h and 16 h
Description: Female C57BL mice (4-week-old) were randomly divided into seven groups, six treated groups and one control group. Free Ret-NH2 (3.5 μmol per mouse, dissolved in DMSO and dispersed in vegetable oil) or retinylamine derivatives (Ret-Gly, Ret-L-Val-Gly, Ret-L-Phe, Ret-L-Leu, Ret-L-Val, 3.5 μmol per mouse, dissolved in DMSO and dispersed in vegetable oil) was administered by gastric gavage, control group was only gavaged vegetable oil. Then at each predetermined time point (2 and 16 h after drug administration), 3 mice were sacrificed. The liver and eye balls were collected to determine tissue N-retinylamide content for pharmacokinetic analysis. A portion of the liver tissue (0.3-0.5 g) was weighed, homogenized in 2 mL 1:1 ethanol:PBS solution and the eye balls were similarly processed (eye balls were combined for 3 mice). N-Retinylamides were extracted in 4 mL hexane, concentrated, and reconstituted to a 300 μL volume for liver (200 μL for eye). Normal-phase HPLC (Agilent-Zorbax SIL; 5 μm; 4.5×250 mm; flow rate of 1.4 mL/min; 80:20 hexane:ethyl acetate (v:v); detection at 325 nm) was utilized to determine N-retinylamide concentration in these tissues.
Female C57BL mice (4-week-old) were randomly divided into seven groups, six treated groups and one control group. Free Ret-NH2 (3.5 μmol per mouse, dissolved in DMSO and dispersed in vegetable oil) or retinylamine derivative (Ret-Gly, Ret-L-Val-Gly, Ret-L-Phe, Ret-L-Leu, Ret-L-Val, 3.5 μmol per mouse, dissolved in DMSO and dispersed in vegetable oil) was administered by gastric gavage, control group was only gavaged vegetable oil. Then at each predetermined time point (2 and 16 h after drug administration), 3 mice were sacrificed. The liver and eye balls were collected to determine tissue drug content for pharmacokinetic analysis. A portion of the liver tissue (0.3-0.5 g) was weighed, homogenized in 2 mL 1:1 ethanol:PBS solution and the eye balls were similarly processed. Retinylamine or its derivative was extracted in 4 mL ethyl acetate, concentrated, and reconstituted to a 300 μL volume for liver (200 μL for eye). Reverse-phase HPLC (analytical C18 reverse column; 5 μm; 250 mm×4.6 mm; flow rate of 1.0 mL/min; 60:40 acetonitrile:H2O (v:v) with 0.05% trifluoroacetic acid; detection at 325 nm) was utilized to determine retinylamine or its derivative in these tissues. […]
No N-retinylamides were detected in the eye at 2 h for all treated mice. The concentration of N-retinylamides in the liver of all treated mice increased at 16 h post-treatment. […] The concentrations of the original drugs were also determined in the liver and eye at 2 h and 16 h (FIGS. 7C, D). All tested drugs, including Ret-NH2, were detected in liver and their concentrations decreased from 2 h to 16 h.

[2] = 3.5 μmol per mouse oral, C57BL mice, 16 h

Row | Structure (SMILES) | protection against light-induced retinal degeneration (ONL thickness from OCT) (Abca4^−/−Rdh8^−/− mice) | original drug detected in the eye ([1]; 3.5 μmol per mouse oral) | further results
1 | CC1=C(/C=C/C(C)=C/C=C/C(C)=C/CNC(=O)CN)C(C)(C)CCC1 [RG, 2-amino-N-((2E,4E,6E,8E)-3,7-dimethyl-9-(2,6,6-trimethylcyclohex-1-en-1-yl)nona-2,4,6,8-tetraen-1-yl)acetamide] | significant improvement on preventing light-induced retinopathy over retinyl amine; also recorded: relatively high protecting effect | detected in eyes at both 2 h and 16 h at a relatively high concentration | protection against light-induced retinal degeneration (ONL thickness from OCT) (Abca4^−/−Rdh8^−/− mice; listed as glycyl): significantly better protection than Ret-NH2 and other derivatives; liver concentration of N-retinylamides [1, 2]: lower liver concentration of N-retinylamides than RF and RL
2 | CC1=C(/C=C/C(C)=C/C=C/C(C)=C/CNC(=O)CNC(=O)[C@@H](N)C(C)C)C(C)(C)CCC1 [RGV, (S)-2-amino-N-(2-(((2E,4E,6E,8E)-3,7-dimethyl-9-(2,6,6-trimethylcyclohex-1-en-1-yl)nona-2,4,6,8-tetraen-1-yl)amino)-2-oxoethyl)-3-methylbutanamide] | significant improvement on preventing light-induced retinopathy over retinyl amine | – | –
3 | CC1=C(/C=C/C(C)=C/C=C/C(C)=C/CNC(=O)[C@@H](N)CC(C)C)C(C)(C)CCC1 [RL, (S)-2-amino-N-((2E,4E,6E,8E)-3,7-dimethyl-9-(2,6,6-trimethylcyclohex-1-en-1-yl)nona-2,4,6,8-tetraen-1-yl)-4-methylpentanamide] | low protecting effect | only detected at 2 h | protection against light-induced retinal degeneration (ONL thickness from OCT) (Abca4^−/−Rdh8^−/− mice; listed as L-leucyl): little protecting efficacy; metabolism in the eye [1]: rapidly metabolized into inactive N-retinylamides in the eye
4 | CC1=C(/C=C/C(C)=C/C=C/C(C)=C/CNC(=O)[C@@H](N)C(C)C)C(C)(C)CCC1 [RV, (S)-2-amino-N-((2E,4E,6E,8E)-3,7-dimethyl-9-(2,6,6-trimethylcyclohex-1-en-1-yl)nona-2,4,6,8-tetraen-1-yl)-3-methylbutanamide] | relatively high protecting effect | detected in eyes at both 2 h and 16 h at a relatively high concentration | N-retinylamides in the eye [1, 2]: no detectable N-retinylamides in the eye; liver concentration of N-retinylamides [1, 2]: lower liver concentration of N-retinylamides than RF and RL; metabolism in the eye [1]: stable against metabolism and had prolonged presence in the eye as intact drug molecules

Now from value to compound, other results behind:

Row | protection against light-induced retinal degeneration (ONL thickness from OCT) (Abca4^−/−Rdh8^−/− mice) | Structure (SMILES) | original drug detected in the eye ([1]; 3.5 μmol per mouse oral) | further results
5 | little protecting efficacy | CC1=C(/C=C/C(C)=C/C=C/C(C)=C/CNC(=O)[C@H](C)N)C(C)(C)CCC1 [3a, (S)-2-amino-N-((2E,4E,6E,8E)-3,7-dimethyl-9-(2,6,6-trimethylcyclohex-1-en-1-yl)nona-2,4,6,8-tetraen-1-yl)propanamide] | – | –
6 | little protecting efficacy | CC[C@H](C)[C@H](N)C(=O)NC/C=C(C)/C=C/C=C(C)/C=C/C1=C(C)CCCC1(C)C [3c, (2S,3S)-2-amino-N-((2E,4E,6E,8E)-3,7-dimethyl-9-(2,6,6-trimethylcyclohex-1-en-1-yl)nona-2,4,6,8-tetraen-1-yl)-3-methylpentanamide] | – | –
7 | little protecting efficacy | CC1=C(/C=C/C(C)=C/C=C/C(C)=C/CNC(=O)[C@@H](C)N)C(C)(C)CCC1 [3f, (R)-2-amino-N-((2E,4E,6E,8E)-3,7-dimethyl-9-(2,6,6-trimethylcyclohex-1-en-1-yl)nona-2,4,6,8-tetraen-1-yl)propanamide] | – | –
8 | little protecting efficacy | CC1=C(/C=C/C(C)=C/C=C/C(C)=C/CNC(=O)[C@H](N)C(C)C)C(C)(C)CCC1 [3g, (R)-2-amino-N-((2E,4E,6E,8E)-3,7-dimethyl-9-(2,6,6-trimethylcyclohex-1-en-1-yl)nona-2,4,6,8-tetraen-1-yl)-3-methylbutanamide] | – | –
9 | little protecting efficacy | CC1=C(/C=C/C(C)=C/C=C/C(C)=C/CNC(=O)CCN)C(C)(C)CCC1 [3h, 3-amino-N-((2E,4E,6E,8E)-3,7-dimethyl-9-(2,6,6-trimethylcyclohex-1-en-1-yl)nona-2,4,6,8-tetraen-1-yl)propanamide] | – | –
10 | little protecting efficacy | CC1=C(/C=C/C(C)=C/C=C/C(C)=C/CNC(=O)[C@@H]2CCCN2)C(C)(C)CCC1 [3i, (S)—N-((2E,4E,6E,8E)-3,7-dimethyl-9-(2,6,6-trimethylcyclohex-1-en-1-yl)nona-2,4,6,8-tetraen-1-yl)pyrrolidine-2-carboxamide] | – | –
